Data on 35 compounds can be found in patent publication US9663513B2, “Pyrimidine PDE10 inhibitors” (Merck Sharp & Dohme Corp., priority 2012, dated 2017).

The target of the test is human PDE10A2 (Homo sapiens (Human), UniProt Q9Y233). Nature of the test: PDE10 fluorescence polarization (IMAP FP) inhibition assay. The test is classed as biochemical. The following applies: human PDE10A2 from transfected AD293 cells; FAM-labeled cAMP 50 nM; apparent inhibition constant; read-out: PDE10A Ki. The method, then: The activity of the compounds in accordance with the present invention as PDE10 inhibitors may be readily determined without undue experimentation using a fluorescence polarization (FP) methodology that is well known in the art (Huang, W., et al., J. Biomol Screen, 2002, 7: 215).
Sequence of human PDE10A2 (Q9Y233 267-1055): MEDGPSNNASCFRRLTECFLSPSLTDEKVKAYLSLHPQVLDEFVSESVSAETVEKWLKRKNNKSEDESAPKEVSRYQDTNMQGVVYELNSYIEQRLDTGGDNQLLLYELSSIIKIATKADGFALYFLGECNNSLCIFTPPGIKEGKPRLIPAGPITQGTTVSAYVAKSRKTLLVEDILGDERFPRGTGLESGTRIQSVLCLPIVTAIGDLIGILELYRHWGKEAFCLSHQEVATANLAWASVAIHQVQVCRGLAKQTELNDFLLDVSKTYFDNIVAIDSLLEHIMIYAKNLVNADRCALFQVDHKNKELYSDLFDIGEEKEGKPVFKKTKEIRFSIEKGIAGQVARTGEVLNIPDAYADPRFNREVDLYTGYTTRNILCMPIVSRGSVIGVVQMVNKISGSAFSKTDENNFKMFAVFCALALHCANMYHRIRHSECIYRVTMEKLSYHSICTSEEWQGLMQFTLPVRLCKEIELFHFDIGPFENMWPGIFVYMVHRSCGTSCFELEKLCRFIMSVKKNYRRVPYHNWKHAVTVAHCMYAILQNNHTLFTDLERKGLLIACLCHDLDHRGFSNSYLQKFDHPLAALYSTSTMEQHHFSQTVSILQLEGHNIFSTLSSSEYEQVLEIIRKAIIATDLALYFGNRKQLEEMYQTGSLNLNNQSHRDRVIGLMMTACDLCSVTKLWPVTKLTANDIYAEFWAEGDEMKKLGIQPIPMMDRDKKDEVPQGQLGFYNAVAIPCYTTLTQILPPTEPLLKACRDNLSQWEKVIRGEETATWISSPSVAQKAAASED
In a typical experiment the PDE10 inhibitory activity of the compounds of the present invention was determined in accordance with the following experimental method. PDE10A2 was amplified from human fetal brain cDNA (Clontech, Mountain View, Calif.) using a forward primer corresponding to nucleotides 56-77 of human PDE10A2 (Accession No. AF127480, Genbank Identifier 4894716), containing a Kozak consensus sequence, and a reverse primer corresponding to nucleotides 2406-2413 of human PDE10A2 (Accession No. AF127480, Genbank Identifier 4894716). Amplification with Easy-A polymerase (Stratagene, La Jolla, Calif.) was 95° C. for 2 minutes followed by thirty three cycles of 95° C. for 40 seconds, 55° C. for 30 seconds, and 72° C. for 2 minutes 48 seconds. Final extension was 72° C. for 7 minutes. The PCR product was TA cloned into pcDNA3.2-TOPO (Invitrogen, Carlsbad, Calif.) according to standard protocol. AD293 cells with 70-80% confluency were transiently transfected with human PDE10A2/pcDNA3.2-TOPO using Lipofectamine 2000 according to manufacturer specifications (Invitrogen, Carlsbad, Calif.). Cells were harvested 48 hours post-transfection and lysed by sonication (setting 3, 10×5 sec pulses) in a buffer containing 20 mM HEPES, 1 mM EDTA and protease inhibitor cocktail (Roche). Lysate was collected by centrifugation at 75,000×g for 20 minutes. Supernatant containing the cytoplasmic fraction was used for evaluation of PDE10A2 activity. The fluorescence polarization assay for cyclic nucleotide phosphodiesterases was performed using an IMAP® FP kit supplied by Molecular Devices, Sunnyvale, Calif. (product # R8139). IMAP® technology has been applied previously to phosphodiesterase assays (Huang, W., et al., J. Biomol Screen, 2002, 7: 215). Assays were performed at room temperature in 384-well microtiter plates with an incubation volume of 20.2 μL. Solutions of test compounds were prepared in DMSO and serially diluted with DMSO to yield 8 μL of each of 10 solutions differing by 3-fold in concentration, at 32 serial dilutions per plate. […] 0% of inhibition is determined by using DMSO (1% final concentrations).
A Labcyte Echo 555 (Labcyte, Sunnyvale, Calif.) is used to dispense 200 nL from each well of the titration plate to the 384 well assay plate. A solution of enzyme (1/1600 dilution from aliquots; sufficient to produce 20% substrate conversion) and a separate solution of FAM-labeled cAMP PDE from Molecular Devices (product # R7506), at a final concentration of 50 nM are made in the assay buffer (10 mM Tris HCl, pH 7.2, 10 mM MgCl2, 0.05% NaN3 0.01% Tween-20, and 1 mM DTT). The enzyme and the substrate are then added to the assay plates in two consecutive additions of 10 μL, and then shaken to mix. The reaction is allowed to proceed at room temperature for 30 minutes. […] The enzymatic reaction is stopped by addition of 60 μL of the binding solution to each well of the assay plates and the plates are sealed and shaken for 10 seconds. The plate was incubated at room temperature for at least one hour prior to determining the fluorescence polarization (FP). The parallel and perpendicular fluorescence of each well of the plate was measured using a Perkin Elmer EnVision™ plate reader (Waltham, Mass.).
Fluorescence polarization (mP) was calculated from the parallel (S) and perpendicular (P) fluorescence of each sample well and the analogous values for the median control well, containing only substrate (So and Po), using the following equation: Polarization(mP)=1000*(S/So−P/Po)/(S/So+P/Po).
Dose-inhibition profiles for each compound were characterized by fitting the mP data to a four-parameter equation given below.
Turning to `Cc1ncc(-c2ccncc2)c(OC[C@H]2C[C@@H]2c2ccc3ccccc3n2)n1` (single isomer, unassigned) [Example 26], the Ki worked out at 0.02 nM.

For `Cc1ncc(-c2ccncc2)c(OC[C@H]2C[C@@H]2c2ccc3ccccc3n2)n1` (single isomer, unassigned) [Example 27], the Ki stood at 0.93 nM.

Turning to `COc1ccc(-c2cnc(C)nc2OC[C@H]2C[C@@H]2c2ccc3ccccc3n2)cc1` (single isomer, unassigned) [Example 28], the Ki came to 0.1 nM.

For `COc1ccc(-c2cnc(C)nc2OC[C@H]2C[C@@H]2c2ccc3ccccc3n2)cc1` (single isomer, unassigned) [Example 29], the Ki was found to be 1.66 nM.

In the case of `CCc1ccc(-c2cnc(C)nc2OC[C@H]2C[C@@H]2c2ccc3ccccc3n2)cc1` (single isomer, unassigned) [Example 30], the Ki was 0.37 nM.

Regarding `CCc1ccc(-c2cnc(C)nc2OC[C@H]2C[C@@H]2c2ccc3ccccc3n2)cc1` (single isomer, unassigned) [Example 31], the Ki stood at 7.95 nM.

As to `Cc1ncc(-c2ccc(C(C)O)cc2)c(OC[C@H]2C[C@@H]2c2ccc3ccccc3n2)n1` (single isomer, unassigned) [Example 34], the Ki was determined as 0.01 nM.

As to `Cc1ncc(-c2ccc(C(C)O)cc2)c(OC[C@H]2C[C@@H]2c2ccc3ccccc3n2)n1` (single isomer, unassigned) [Example 35], the Ki was 1.05 nM.

Take `Cc1ncc(-c2ccc(CO)cc2)c(OC[C@H]2C[C@@H]2c2ccc3ccccc3n2)n1` (single isomer, unassigned) [Example 38]: the Ki was 0.03 nM.

On to `Cc1ncc(-c2ccc(CO)cc2)c(OC[C@H]2C[C@@H]2c2ccc3ccccc3n2)n1` (single isomer, unassigned) [Example 39], for which the Ki amounted to 0.87 nM.

On to `CCOc1cccc(-c2cnc(C)nc2OC[C@H]2C[C@@H]2c2ccc3ccccc3n2)c1` (single isomer, unassigned) [Example 40, 2,2,2-trifluoroacetate], for which the Ki stood at 0.04 nM.

Consider `CCOc1cccc(-c2cnc(C)nc2OC[C@H]2C[C@@H]2c2ccc3ccccc3n2)c1` (single isomer, unassigned) [Example 41, 2,2,2-trifluoroacetate], for which the Ki came out at 5.08 nM.

Turning to `Cc1ccc([C@H]2C[C@@H]2COc2nc(C)ncc2-c2ccc(C(C)(C)O)nc2)nc1` (single isomer, unassigned) [Example 46], the Ki worked out at 0.06 nM.

Regarding `COc1ccc([C@H]2C[C@@H]2COc2nc(C)ncc2-c2ccc([S+](C)[O-])nc2)nc1` (single isomer, unassigned) [Example 64], the Ki is 1.75 nM.

In the case of `COc1ccc([C@H]2C[C@@H]2COc2nc(C)ncc2-c2ccc([S+](C)[O-])nc2)nc1` (single isomer, unassigned) [Example 65], the Ki was found to be 2.62 nM.

As to `Cc1ncc(-c2cnc3[nH]ncc3c2)c(OC[C@H]2C[C@@H]2c2ccc3ccccc3n2)n1` (single isomer, unassigned) [Example 151], the Ki amounted to 0.02 nM.

For the compound `Cc1ncc(-c2cnc3[nH]ncc3c2)c(OC[C@H]2C[C@@H]2c2ccc3ccccc3n2)n1` (single isomer, unassigned) [Example 152], the Ki was 1.78 nM.

In the case of `Cc1ncc(-c2ccc(C(C)(C)O)nc2)c(OC[C@H]2C[C@@H]2c2ncccc2C)n1` (single isomer, unassigned) [Example 173], the Ki is 0.51 nM.

As for `Cc1ncc(-c2ccc(C(C)(C)O)nc2)c(OC[C@H]2C[C@@H]2c2ncccc2C)n1` (single isomer, unassigned) [Example 174], the Ki is 8.42 nM.

As to `Cc1cccc([C@H]2C[C@@H]2COc2nc(C)ncc2-c2ccc(C(C)(C)O)nc2)n1` (single isomer, unassigned) [Example 175], the Ki worked out at 0.2 nM.

Turning to `Cc1ccnc([C@H]2C[C@@H]2COc2nc(C)ncc2-c2ccc(C(C)(C)O)nc2)c1` (single isomer, unassigned) [Example 177], the Ki came to 0.38 nM.

`Cc1ccnc([C@H]2C[C@@H]2COc2nc(C)ncc2-c2ccc(C(C)(C)O)nc2)c1` (single isomer, unassigned) [Example 178]: the Ki came out at 35.6 nM.

With `CCc1ccc([C@H]2C[C@@H]2COc2nc(C)ncc2-c2ccc(C(C)(C)O)nc2)nc1` (single isomer, unassigned) [Example 180], the Ki was found to be 5.95 nM.

For the compound `CCc1ccc([C@H]2C[C@@H]2COc2nc(C)ncc2-c2ccc(C(C)(C)O)nc2)nc1` (single isomer, unassigned) [Example 181], the Ki came to 0.05 nM.

As to `Cc1ccc([C@H]2C[C@@H]2COc2nc(C)ncc2-c2ccc(C)cc2C)nc1` [Example 2, 5-(2,4-dimethylphenyl)-2-methyl-4-(((1S,2S)-2-(5-methylpyridin-2-yl)cyclopropyl)methoxy)pyrimidine], the Ki amounted to 2.44 nM.

Regarding `Cc1ccc([C@H]2C[C@@H]2COc2nc(C)ncc2-c2cccc(OC(C)C)c2)nc1` [Example 3, 5-(3-isopropoxyphenyl)-2-methyl-4-(((1S,2S)-2-(5-methylpyridin-2-yl)cyclopropyl)methoxy)pyrimidine], the Ki came to 0.3 nM.

With `Cc1ccc([C@H]2C[C@@H]2COc2nc(C)ncc2-c2cccc(C(C)C)c2)nc1` [Example 4, 5-(3-isopropylphenyl)-2-methyl-4-(((1S,2S)-2-(5-methylpyridin-2-yl)cyclopropyl)methoxy)pyrimidine], the Ki is 2.14 nM.

Turning to `Cc1ccc([C@H]2C[C@@H]2COc2nc(C)ncc2-c2ccccc2OC(F)(F)F)nc1` [Example 5], the Ki is 3.15 nM.

Take `Cc1ccc([C@H]2C[C@@H]2COc2nc(C)ncc2-c2c(F)cccc2F)nc1` [Example 6, 5-(2,6-difluorophenyl)-2-methyl-4-(((1S,2S)-2-(5-methylpyridin-2-yl)cyclopropyl)methoxy)pyrimidine]: the Ki came to 1.42 nM.

Regarding `Cc1ccc([C@H]2C[C@@H]2COc2nc(C)ncc2-c2cc(F)cc(F)c2)nc1` [Example 7, 5-(3,5-difluorophenyl)-2-methyl-4-(((1S,2S)-2-(5-methylpyridin-2-yl)cyclopropyl)methoxy)pyrimidine], the Ki was determined as 0.46 nM.

With `CCc1ccccc1-c1cnc(C)nc1OC[C@H]1C[C@@H]1c1ccc(C)cn1` [Example 8], the Ki came to 3.24 nM.

Regarding `Cc1ccc([C@H]2C[C@@H]2COc2nc(C)ncc2-c2ccc(F)c(C)c2)nc1` [Example 9, 5-(4-fluoro-3-methylphenyl)-2-methyl-4-(((1S,2S)-2-(5-methylpyridin-2-yl)cyclopropyl)methoxy)pyrimidine], the Ki was 1.13 nM.

In the case of `Cc1ccc([C@H]2C[C@@H]2COc2nc(C)ncc2-c2ccc(C(F)(F)F)cc2)nc1` [Example 10, 2-methyl-4-(((1S,2S)-2-(5-methylpyridin-2-yl)cyclopropyl)methoxy)-5-(4-(trifluoromethyl)phenyl)pyrimidine], the Ki turned out to be 5.71 nM.

Regarding `Cc1ccc([C@H]2C[C@@H]2COc2nc(C)ncc2-c2c(C)cccc2C)nc1` [Example 11, 5-(2,6-dimethylphenyl)-2-methyl-4-(((1S,2S)-2-(5-methylpyridin-2-yl)cyclopropyl)methoxy)pyrimidine], the Ki was determined as 4.43 nM.

As to `Cc1ccc([C@H]2C[C@@H]2COc2nc(C)ncc2-c2cccc(OC(F)(F)F)c2)nc1` [Example 12, 2-methyl-4-(((1S,2S)-2-(5-methylpyridin-2-yl)cyclopropyl)methoxy)-5-(3-(trifluoromethoxy)phenyl)pyrimidine], the Ki was 1.11 nM.
